Assay results reported in US20060116518A1, “Novel phenanthridines” (Altana Pharma AG, priority 2002, published 2006).

Row | melting point [°C] | Compound
1 | 132 to 135 | CCN(CC)C(=N)NC(=O)c1ccc(C2=N[C@@H]3CCCC[C@@H]3c3cc(OC)c(OC)cc32)cc1 [Compound 1, N′-{-[4-((4aR,10bR)-8,9-Dimethoxy-1,2,3,4,4a,10b-hexahydrophenanthridin-6yl)-phenyl]-methanoyl}-N,N-diethylquanidine]
2 | 133 | COc1cc2c(cc1OC)C1CCCCC1N=C2c1ccc(C(=O)NC(=N)N2CCN(C)CC2)cc1 (stereo not drawn) [Compound 5]
3 | 126 | COc1cc2c(cc1OC)C1CCCCC1N=C2c1ccc(C(=O)NC(=N)N2CCCC2)cc1 [Compound 9, 4-((4aR,10bR)-8,9-Dimethoxy-1,2,3,4,4a.10b-hexahydro-phenanthridin-6-yl)-N-(1-imino-1-pyrrolidin-1-yl-methyl)-benzamide]
4 | 179 to 180 | COc1cc2c(cc1OC)[C@H]1CCCC[C@H]1N=C2c1ccc(C(=O)NC(=N)n2nc(C)cc2C)cc1 [Compound 11, 4((4aR,10bR)-8,9-Dimethoxy-1,2,3,4,4a,10b-hexahydro-phenanthridin-6-yl)-N-[1-(3,5-dimethyl-pyrazol-1-yl)-1-imino-methyl]-benzamide]
5 | 89 to 91 | CCN(CC)C(=N)NC(=O)c1cccc(C2=NC3CCCCC3c3cc(OC)c(OC)cc32)c1 [Compound 12, N′-{1[3-((4aR,10bR)-8,9-Dimethoxy-1,2,3,4,a,10b-hexahydrophenanthridin-6-yl)-phenyl]-methanoyl}-N,N-diethylquanidine]
6 | 187 to 188 | COc1cc2c(cc1OC)[C@H]1CCCC[C@H]1N=C2c1cccc(C(=O)NC(=N)N2CCOCC2)c1 [Compound 13, 3-((4aR,10bR)-8,9-Dimethoxy-1,2,3,4,4a,10b-hexahydrophenanthridin-6-yl)-N-(1-imino-1-morpholin-4yl-methyl)-benzamide]
